Assay results reported in US20060067942A1, “Pharmaceutical agent comprising amino acids, peptides, proteins and/or fractions and fragments thereof and the use of same in the prophylaxis and treatment of immune system deficiency in humans and animals” (priority 2004, published 2006).
Values joined by “and” are separate entries in the source; they are usually repeats but may differ in a detail not shown here. Identical values can stand only once.

Assays:
T-lymphocytes = assay: E-rosette test in immunosuppressed guinea pigs; format: in vivo, guinea pig
From the text: Guinea pig's T-lymphocytes bind rabbits erythrocytes on their surface, this ability is used to observe the dynamics of changes in the number of T-lymphocytes. The number of the human T-lymphocytes is one of the parameters of evaluation of cellular immunity in the clinical immunology. […] The first step was to determine the number of T-lymphocytes by using the E-rosette assay in the 8 Guinea pigs in the weight range 260-310 g. The second step was to decrease the number of T-lymphocytes. This was done using the immunosuppressant Azathioprin. The application of this is per os for 7 of the guinea pigs. The 8th guinea pig will be used as a control without application of the immunosuppressant. The second determination of the T-lymphocytes followed 7 days after the application of the immunosuppressant. […] One of the suppressed guinea pigs was used as a control suppressed animal.
The level of E-rosettes was determined on the first day from the blood of 12 experimental guinea pigs. On the second day, 8 animals (group A) were treated i.p. with oxoplatin as an anti-tumor agent and 3 animals (group B) were treated with double the dose of oxoplatin. The final guinea pig was used as a control. The level of E-rosettes was determined 5 days later.
The level of the E-rosettes in 3 guinea pigs with low values of E-rosettes was determined again at day 35.
The level of E-rosettes in 9 experimental guinea pigs was determined on the 1st day. On the second day 8 animals were injected with Campto and one was without application. The level of E-rosettes in all guinea pigs was determined on the 7th day of experiment. […] On day 22 of the experiment one guinea pig had E-rosette production determined. The level of E-rosettes was then determined again in all animals on day 29.
The level of E-rosettes in 9 experimental guinea pigs was determined on the first day. On the second day, 8 guinea pigs were injected with Taxol. The level of E-rosettes was determined again on the 7th day of experimentation. […] The level of E-rosettes in all guinea pigs was determined on the 29th day.
The level of the E-rosettes in 10 experimental guinea pigs was determined on the first day. On the second day, 9 guinea pigs were injected with Eloxatin. The level of E-rosettes were determined on the 7th day of experimentation. […] The final level of E-rosettes was then determined on the 30th day of experimentation.

CD4+ T lymphocytes = assay: Intracellular staining for IFNg and CD69 expression on CD4+ lymphocytes in whole blood; format: cell-based, human; conditions: for % CD69+ cells / % CD69+/IFNg+ cells: CD4+ lymphocytes, 0.5 ml blood + 50 μg preparation or 10 μg PHA
Experimental: Briefly, whole peripheral blood was collected into sodium heparin. […] Addition of 10 μl Brefeldin A (Sigma, 10 μg/ml) to all tubes. Incubation for new 4 hours at 37° C., 5% CO2. Brefeldin A is an agent which arrest produced cytokine intracellular. Surface and intracellular staining for T-lymphocytes was performed according to the manufacturer rules with monoclonal antibodies against CD3, CD4, CD69 and IFNg from FastImmune CD4 Intracellular Cytokine Detection kit (BD). Red blood cells were lysed with FACS Lysing solution for 10 min. at room temperature. Permeabilization of lymphocytes was achieved using FACS Permeabilizing solution (BD) for 10 min. The activation and intracellular cytokine expression was evaluated by the staining with CD4/CD69/IGNg monoclonal antibodies

human PBMC = assay: Lymphocyte proliferation in vitro (Stimulation index, Thymidine uptake); format: cell-based; conditions: PHA positive control
Experimental: T-lymphocyte activation can be assessed directly by: • a) De novo expression or increase of activation markers such as CD69 on T lymphocytes (CD69+/CD4+ cells) after 4 hours activation • b) Measuring blastogenesis and/or proliferation of cells to phytomitogens (such as Phytohemagglutinin, PHA), common antigens or other substances evaluated 72 hours after activation • c) Antigen-induced release of cytokines (in this case the preparation-induced intra-cellular expression of IFNg in CD4+ T lymphocytes) Methods
Heparinized venous blood from 5 healthy volunteers (women, aged 35-52 years) has been used for the performance of the following investigations:
In vitro proliferation of PBMC from 5 healthy individuals is presented as Stimulation index in Table 2. The PHA-induced proliferation, used here as a positive control, verified good culturing conditions, as it is shown mean proliferation index 184.5±142.8 at 72 hours. As it is expected, at 6 day SI of PHA stimulation is dropping (it is a mitogen), but the cell cultures were intact.
That is why we tested it's stimulation activity at 3 days and 6 days activation period.

Molecule: CC(=O)O[C@H]1C(=O)[C@@]2(C)[C@H]([C@H](OC(=O)c3ccccc3)[C@]3(O)C[C@H](OC(=O)[C@H](O)[C@@H](NC(=O)c4ccccc4)c4ccccc4)C(C)=C1C3(C)C)[C@]1(OC(C)=O)CO[C@@H]1C[C@@H]2O [Taxol]
- decrease of production of E-rosettes after application of Taxol (T-lymphocytes; Experiment 3, injected day 2, determined 7th day): 16%

Molecule: CCc1c2c(nc3ccc(OC(=O)N4CCC(N5CCCCC5)CC4)cc13)-c1cc3c(c(=O)n1C2)COC(=O)[C@]3(O)CC [Campto]
- decrease of production of E-rosettes after application of Campto (T-lymphocytes; Experiment 2, injected day 2, determined 7th day): 22.7%

Molecule: N.N.[Cl-].[Cl-].[OH-].[OH-].[Pt+4] [oxoplatin]
- decrease of production of E-rosettes after application of oxoplatin (T-lymphocytes; Experiment 1, i.p., determined 5 days later): 27.4%

Molecule: Phytohemagglutinin [PHA]
- % CD69+ cells (CD4+ T lymphocytes; Mean of 6 donors): 83.54%
- % CD69+/IFNg+ cells (CD4+ T lymphocytes; Mean of 6 donors): 4.97±5.75% and 4.97%
- PHA induced % CD69+ cells (CD4+ T lymphocytes; after 4 hours stimulation, healthy individuals): over 80%
- % CD69+ cells (CD4+ T lymphocytes; donor five): 78.46%
- % CD69+/IFNg+ cells (CD4+ T lymphocytes; donor five): 2.45%
- % CD69+ cells (CD4+ T lymphocytes; donor four): 87.87%
- % CD69+/IFNg+ cells (CD4+ T lymphocytes; donor four): 2.87%
- % CD69+ cells (CD4+ T lymphocytes; donor one): 89.58%
- % CD69+/IFNg+ cells (CD4+ T lymphocytes; donor one): 0.49%
- % CD69+ cells (CD4+ T lymphocytes; donor six): 90.03%
- % CD69+/IFNg+ cells (CD4+ T lymphocytes; donor six): 16.42%
- % CD69+ cells (CD4+ T lymphocytes; donor three): 86.39%
- % CD69+/IFNg+ cells (CD4+ T lymphocytes; donor three): 4.39%
- % CD69+ cells (CD4+ T lymphocytes; donor two): 68.91%
- % CD69+/IFNg+ cells (CD4+ T lymphocytes; donor two): 3.18%
- Stimulation index (PBMC proliferation) (human PBMC; Mean of donors, 3 days (72 hours)): 184.5±142.8
- Stimulation index (PBMC proliferation) (human PBMC; Mean of donors, 3 days (72 hours), listed as PHA(+)): 184.33
- Stimulation index (PBMC proliferation) (human PBMC; Mean of donors, 6 days): 51.97
- Stimulation index (PBMC proliferation) (human PBMC; donor four, 3 days): 77.3
- Stimulation index (PBMC proliferation) (human PBMC; donor four, 6 days): 61.09
- Stimulation index (PBMC proliferation) (human PBMC; donor one, 3 days): 417
- Stimulation index (PBMC proliferation) (human PBMC; donor one, 6 days): 33
- Stimulation index (PBMC proliferation) (human PBMC; donor six, 3 days): 114.65
- Stimulation index (PBMC proliferation) (human PBMC; donor six, 6 days): 25.11
- Stimulation index (PBMC proliferation) (human PBMC; donor three, 3 days): 87.38
- Stimulation index (PBMC proliferation) (human PBMC; donor three, 6 days): 119.9
- Stimulation index (PBMC proliferation) (human PBMC; donor two, 3 days): 225.3
- Stimulation index (PBMC proliferation) (human PBMC; donor two, 6 days): 20.74

Molecule: O=C1[O][Pt]2([NH][C@@H]3CCCC[C@H]3[NH]2)[O]C1=O [Eloxatin]
- decrease of formation of E-rosettes after application of Eloxatin (T-lymphocytes; Experiment 4, injected day 2, determined 7th day): 22%
